The record followed here is ChEMBL document CHEMBL1144829, “2-Arylbenzoxazoles as novel cholesteryl ester transfer protein inhibitors: optimization via array synthesis” (Bioorg Med Chem Lett, 2008).

Experiment [1] has as its target T1, Cholesteryl ester transfer protein (Homo sapiens, UniProt P11597).
T1 sequence (P11597 whole entry): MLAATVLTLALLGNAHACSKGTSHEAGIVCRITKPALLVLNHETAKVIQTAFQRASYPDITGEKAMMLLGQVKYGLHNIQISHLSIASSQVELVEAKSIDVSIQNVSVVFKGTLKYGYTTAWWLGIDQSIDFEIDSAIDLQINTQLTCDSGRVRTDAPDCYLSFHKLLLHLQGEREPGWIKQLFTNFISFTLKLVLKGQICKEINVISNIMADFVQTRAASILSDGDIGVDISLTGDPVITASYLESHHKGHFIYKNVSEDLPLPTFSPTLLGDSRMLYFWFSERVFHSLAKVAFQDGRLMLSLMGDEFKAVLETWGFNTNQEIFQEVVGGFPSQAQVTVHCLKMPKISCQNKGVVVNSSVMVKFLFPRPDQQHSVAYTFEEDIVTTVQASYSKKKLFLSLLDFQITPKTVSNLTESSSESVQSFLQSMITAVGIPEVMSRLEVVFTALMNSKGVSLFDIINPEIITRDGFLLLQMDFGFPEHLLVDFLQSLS
In words: Inhibition of CETP in human whole plasma.

For experiment [2], the target named is T1, Cholesteryl ester transfer protein. Put plainly: Inhibition of human CETP by scintillation proximity assay. Background: Scintillation proximity formats need no separation of bound from free tracer.

By pIC50 is commonly meant −log10 of the IC50, conventionally taken in molar units. Low values mean a high IC50, high ones a low IC50.

SMILES strings stand for the structures. pIC50: −log10 of the molar value.

For the compound `Cc1ccccc1OCC(=O)Nc1ccc(-c2nc3cc([N+](=O)[O-])ccc3o2)cc1`, the pIC50 was 4.74 in experiment [1] and 6.92 in experiment [2].

Turning to `CC(=O)c1ccc2oc(-c3ccc(NC(=O)COc4ccccc4C)cc3)nc2c1`, the pIC50 is 4.74 in experiment [1] and 5.92 in experiment [2].

With `N#Cc1ccc2oc(-c3ccc(NC(=O)COc4ccc(Cl)c5c4CCC5)cc3)nc2c1`, the pIC50 in experiment [1] was 5.49; in experiment [2], 7.82.

Turning to `Cc1cc(C)c2oc(-c3ccc(NC(=O)COc4ccc(Cl)cc4)cc3)nc2c1`, the pIC50 was 4.70 in experiment [1] and 6.42 in experiment [2].

For `Cc1cc(C)c2oc(-c3ccc(NC(=O)COc4ccc(Cl)c(C)c4C)cc3)nc2c1`, the pIC50 is 5.77 in experiment [1] and 7.40 in experiment [2].

As for `Cc1cc(C)c2oc(-c3ccc(NC(=O)COc4ccc(F)cc4)cc3)nc2c1`, the values for the pIC50 in experiment [1] and in experiment [2] were 4.51 and 5.14, respectively.

Turning to `Cc1cc(Br)ccc1OCC(=O)Nc1ccc(-c2nc3cc(C#N)ccc3o2)cc1`, the pIC50 was 5.37 in experiment [1] and 7.96 in experiment [2].

In the case of `Cc1cc(C)c2oc(-c3ccc(NC(=O)COc4cccc(C(C)C)c4)cc3)nc2c1`, the pIC50 in experiment [1] was 4.17; in experiment [2], 6.05.

Turning to `Cc1ccccc1OCC(=O)Nc1ccc(-c2nc3cccc(C)c3o2)cc1`, the values for the pIC50 in experiment [1] and in experiment [2] were 4.00 and 5.77, respectively.

For `Cc1ccccc1OCC(=O)Nc1ccc(-c2nc3cc(Cl)ccc3o2)cc1`, the pIC50 in experiment [1] was 4.68; in experiment [2] it was 6.33.

Take `Cc1ccccc1OCC(=O)Nc1ccc(-c2nc3cc(Cl)cc(Cl)c3o2)cc1`: the pIC50 was 4.96 in experiment [1] and 7.06 in experiment [2].
